For series [1], the system named is varicella zoster virus (VZV) (strains OKa and YS). In words: microbe, parasite or virus in culture. In kind it is cell-based. Particulars: for EC50: read-out: EC50/VZV/μM; for antiviral activity with respect to varicella zoster virus (in words): verbal assessment. The protocol:
VZV (strains OKa and YS) induced cytopathogenicity in human embryonic lung fibroblast (HEL) cells was measured 7 days post infection. EC50 was defined as the drug concentration (in μM) required to reduce virus-induced cytopathicity by 50%.
The values of EC50 and CC50 were measured as above.

The subject of series [2] is human embryonic lung fibroblast (HEL) cells. In words: CC50 in tissue culture assay. In kind it is cell-based. How it is done: (§1) Each of the products of Examples 1, 2, 3 and 4 was tested in vitro in tissue culture assays for potent antiviral action with respect to varicella zoster virus (VZV). Acyclovir was included in the test procedure as a control. VZV (strains OKa and YS) induced cytopathogenicity in human embryonic lung fibroblast (HEL) cells was measured 7 days post infection. EC50 was defined as the drug concentration (in μM) required to reduce virus-induced cytopathicity by 50%.
(§2) Each of the products of Examples 7 and 8 was tested in vitro in tissue culture assays for potent antiviral action with respect to varicella zoster virus (VZV). Acyclovir was included in the test procedure as a control. EC50 and CC50 values were measured as described under examples 1 to 6 above. […]

Series [3] is described as follows: CC50 in tissue culture assay. In kind it is cell-based, human. To be noted: human. The protocol: as §1, §2
The next series relates to cytomegalovirus (CMV). In words: CMV induced cytopathogenicity in HEL cells (in vitro tissue culture assay). In kind it is cell-based. Particulars: for EC50: Table IV, CMV induced cytopathogenicity in HEL cells. How it is done: The product of Example 8 was additionally tested in vitro in tissue culture assays for potent antiviral action with respect to cytomegalovirus (CMV). CMV induced cytopatho-genicity in human embryonic lung fibroblast (HEL) cells was measured post infection. EC50 and CC50 were defined as above for VZV. The equivalent data for the known CMV active agent dihydroxypropyl guanine (DHPG) is included in Table IV as a control.

In the next series the test system is HSV-1. Particulars: cited from earlier work.
A further series has as its system HSV-2. To be noted: cited from earlier work.
The next series relates to CMV. To be noted: cited from earlier work.
The subject of the next series is VZV. To be noted: cited from earlier work.
Setting [4] is: Table II, X = O, R chain length series, concentration reducing virus-induced cytopathicity by 50%.
[5] abbreviates: Table I, VZV strains OKa and YS, HEL cells, 7 days post infection, concentration reducing virus-induced cytopathicity by 50%.
[6] abbreviates: Table III, measured as under examples 1 to 6.

Molecules are shown by their SMILES. “Also recorded” adds a separate entry of the source. Like-named read-outs stand apart in the source and are kept apart here.

As to `CCCCCCCc1cc2cn([C@H]3C[C@H](O)[C@@H](CO)O3)c(=O)nc2o1` [Example 6, 3-(2′-Deoxy-β-D-ribofuranosyl)-6-heptyl-2,3-dihydrofuro[2,3-d]pyrimidin-2-one], the EC50 in series [1] (setting [4]) stood at 0.17 µM.

Regarding `CCCCCCc1cc2cn([C@H]3C[C@H](O)[C@@H](CO)O3)c(=O)nc2o1` [Example 4, 3-(2′-Deoxy-β-D-ribofuranosyl)-6-hexyl-2,3-dihydrofuro[2,3-d]pyrimidin-2-one], the EC50 in series [1] (setting [5]) and in series [1] (setting [4]) was 1.3 µM each time. The compound further came in with a CC50 in series [2] of more than 200 µM.

For `O=c1nc2oc(CCCCCCCCCO)cc2cn1[C@H]1C[C@H](O)[C@@H](CO)O1` [Example 7, 3-(2′-Deoxy-β-D-ribofuranosyl)-6-(9-hydroxynonyl)-2,3′-dihydrofuro[2,3-d]pyrimidin-2-one], the EC50 in series [1] (setting [6]) turned out to be 0.4 µM. Moreover, the CC50 in series [2] was more than 200 µM.

In the case of `CCCCCCCCCCc1cc2cn([C@H]3C[C@H](O)[C@@H](CO)O3)c(=O)nc2o1` [Example 2, 3-(2′-Deoxy-β-D-ribofuranosyl)-6-decyl-2,3-dihydrofuro[2,3-d]pyrimidin-2-one], the EC50 in series [1] (setting [5]) and in series [1] (setting [4]) was 0.005 µM each time. For the same compound, the “antiviral activity with respect to varicella zoster virus (in words)” value in series [1] is “extremely potent antiviral activity”. Besides, in series [2], the CC50 is more than 50 µM.

On to `CCCCCCCCCCCCc1cc2cn([C@H]3C[C@H](O)[C@@H](CO)O3)c(=O)nc2o1` [Example 1, 3-(2′-Deoxy-β-D-ribofuranosyl)-6-dodecyl-2,3dihydrofuro[2,3-d]pyrimidin-2-one], for which the EC50 in series [1] (setting [5]) and in series [1] (setting [4]) was not above 1.2 µM in each case. Further, the “antiviral activity with respect to varicella zoster virus (in words)” value in series [1] is given as “antiviral activity comparable to acyclovir”. Besides, the CC50 in series [2] (Table I, read-out: CC50/μM) is more than 200 µM.

Take `O=c1nc2oc(CCCO)cc2cn1[C@H]1C[C@H](O)[C@@H](CO)O1` [Example 9, 3-(2′-Deoxy-β-D-ribofuranosyl)-6-(3-hydroxypropyl)-2,3-dihydrofuro[2,3-d]pyrimidin-2-one]: the EC50 in series [1] (Table V) was 9.7 µM. Moreover, the “antiviral activity with respect to varicella zoster virus (in words)” value in series [1] is “low activity”. For the same compound, the CC50 in series [2] is more than 200 µM.

In the case of `O=c1nc2oc(CCCCO)cc2cn1[C@H]1C[C@H](O)[C@@H](CO)O1` [Example 10, 3-(2′-Deoxy-β-D-ribofuranosyl)-6-(4-hydroxybutyl)-2,3-dihydrofuro[2,3-d]pyrimidin-2-one], the EC50 in series [1] (Table V) was 29 µM. The “antiviral activity with respect to varicella zoster virus (in words)” value in series [1] is on record as “low activity”. In series [2], this compound yielded a CC50 of more than 200 µM.

On to `Nc1nc2c(ncn2COCCO)c(=O)[nH]1` [Acyclovir, reference compound], for which the CC50 in series [3] and in series [2] (human) was more than 100 µM in each case.

Regarding `O=c1nc2oc(CCCCCCCCCCl)cc2cn1C1CC(O)C(CO)O1` (stereo not shown) [Example 8, 6-(9-chlorononyl)-3-(4-hydroxy-5-(hydroxymethyl)tetrahydro-2-furanyl)-2,3-dihydrofuro[2,3,-d]pyrimidin-2-one], the figures for the EC50 (in series [1] (setting [6]); with cytomegalovirus (CMV)) were 0.006 µM and 7.2 µM, respectively. The “antiviral activity with respect to CMV (in words)” value with cytomegalovirus (CMV) (verbal assessment) is listed as “comparable to DHPG”.

Consider `O=c1nc2occc2cn1C1CC(O)C(CO)O1` (stereo not shown), for which the “activity in in vitro assay against HSV-1” value in the series with HSV-1 was “inactive”. Also, the “activity in in vitro assay against HSV-2” value in the series on HSV-2 is “inactive”. The “activity in in vitro assay against CMV” value in the series with CMV is “inactive”. Moreover, the “activity in in vitro assay against VZV” value in the series on VZV is “inactive”.

With `Nc1nc2c(ncn2COC(CO)CO)c(=O)[nH]1` [DHPG, dihydroxypropyl guanine, reference compound], in series [2], the CC50 was more than 200 µM. The same compound displayed an EC50 in the series on cytomegalovirus (CMV) of 3.1 µM.

Regarding `CCCCCCc1cc2cn([C@H]3C[C@H](O)[C@@H](CO)O3)c(=O)nc2[nH]1` [Example 12, 3-(2′-Deoxy-β-D-ribofuranosyl)-6-hexyl,3,7-dihydro-2H-pyrrolo[2,3-d]pyrimidin-2-one], in series [1] (Table VII), the EC50 was more than 50 µM.

Turning to `CCCCCCCCc1cc2cn(C3CC(O)C(CO)O3)c(=O)nc2o1` [Example 3, 3-(2′-Deoxy-β-D-ribofuranosyl)-6-octyl-2,3-dihydrofuro[2,3-d]pyrimidin-2-one], the EC50 in series [1] (Human alphaherpesvirus 3, HEL, 168 h) was 0.003 µM; in series [1] (Human alphaherpesvirus 3, HEL) it was 0.03 µM. Further, the “antiviral activity with respect to varicella zoster virus (in words)” value in series [1] is “extremely potent antiviral activity; also recorded: antiviral activity comparable to acyclovir”. The compound also had a CC50 in series [3] of more than 50 µM.

`CCCCCCCCc1cc2cn([C@H]3C[C@H](O)[C@@H](CO)O3)c(=O)nc2[nH]1` [Example 13, 3-(2′-Deoxy-β-D-ribofuranosyl)-6-octyl,3,7-dihydro-2H-pyrrolo[2,3-d]pyrimidin-2-one]: in series [1] (Table VII), the EC50 was found to be 0.15 µM.

Consider `CCCCCc1cc2cn([C@H]3C[C@H](O)[C@@H](CO)O3)c(=O)nc2o1` [Example 5, 3-(2′-Deoxy-β-D-ribofuranosyl)-6-pentyl-2,3-dihydrofuro[2,3-d]pyrimidin-2-one], for which the EC50 in series [1] (setting [4]) was determined as 3 µM.

On to `CCCCCCCCCCCCc1cc2cn([C@H]3C[C@H](O)[C@@H](CO)O3)c(=O)nc2[nH]1` [Example 14, 3-(2′-Deoxy-β-D-ribofuranosyl)-6-dodecyl-3,7-dihydro-2H-pyrollo[2,3-d]pyrimidin-2-one], for which the EC50 in series [1] (Table VII) was found to be 3.7 µM. Moreover, the CC50 in series [2] is more than 200 µM.
